Source: the COVID Moonshot data (paper PMC11187573), “Identification of SARS-CoV-2 Mpro inhibitors through deep reinforcement learning for de novo drug design and computational chemistry approaches” (RSC Medicinal Chemistry, 2024)

Tests used:
[1] = biological target: SARS-CoV-2 Main Protease (SARS-CoV-2) (UniProt P0DTD1)
[2] = biological target: SARS-CoV-2 Main Protease (SARS-CoV-2) (UniProt P0DTD1); remark: listed apart in the source
Experimental: Briefly, compounds were seeded into assay-ready plates (Greiner 384PP, cat# 781280) using an ECHO 650T dispenser and DMSO was back-filled for a uniform concentration in assay plates (DMSO concentration < 1%, final volume = 500 nL.). […] After a quick centrifugation step (1000 rpm, 15 s) the plate is incubated for 15 min at room temperature. […] After centrifugation (1000 rpm, 14 s) the reaction is incubated for 10 min (11-mer) or 5 min (37-mer) at room temperature before quenching with 10 % formic acid. The reactions are analysed with MS using RapidFire (RF) 365 high-throughput sampling robot (Agilent) connected to an iFunnel Agilent 6550 accurate mass quadrupole time-of-flight (Q-TOF) mass spectrometer using electrospray. […] Dose response curves uses an 11-point range of 100--0.0017 µM inhibitor concentrations. RapidFire integrator software (Agilent) was used to extract the charged states from the total ion chromatogram data followed by peak integration. For the 11-mer peptide the m/z (+1) charge states of both the substrate (1191.67 Da) and cleaved N-terminal product TSAVLQ (617.34 Da) were used and the 37-mer peptide the m/z (+2) charge states of the substrate (3960.94 Da) and m/z (+1) of the cleaved C-terminal product [sequence] (1125.57 Da). Percentage conversion (product peak integral / (product peak integral + substrate peak integral))*100) and percentage inhibitions were calculated and normalised against DMSO control with deduction of any background signal in Microsoft Excel. IC50s were calculated using Levenberg–Marquardt algorithm used to fit a restrained Hill equation to the dose-response data with both GraphPad PRISM and CDD.

| SMILES | inhibition ([1]; 50.0 µM) | IC50 [2] | inhibition ([2]; 20.0 µM) | inhibition ([2]; 50.0 µM) | relative solubility at 20 uM | relative solubility at 100 uM | inhibition ([1]; 20.0 µM) |
| --- | --- | --- | --- | --- | --- | --- | --- |
| NS(=O)(=O)c1ccc(N2CCC(Nc3ccc(F)cc3)CC2)cc1 | 8.08% | 39.2 µM | 3.79% | 50.2% | 1 | 0.89 | – |
| CCO[C@@H]1C[C@H]1C(=O)Nc1cnccc1C (stereo in doubt) | -3.45% | – | – | 0% | 1 | 1 | -4.13% |
| O=C(C1CCN(c2ccncc2)CC1)N1CCCCC1 | -18.6% | – | 0% | -0.3% | 0.99 | 1 | – |
| C=CC(=O)N(c1ccc(C(C)(C)C)cc1)C(C(=O)NC(C)(C)C)c1cncc(Cl)c1 (centres undefined) | 19.6% | – | 0% | 13.5% | 0.99 | 0.86 | 34.6% |
| O=C(Cc1c[nH]c2ncccc12)NCc1ccc(Cl)cc1 | 3.45% | – | 0% | – | 1 | 0.95 | 2.99% |
| Cc1ccc(S(=O)(=O)N2CCN(C(=O)c3cc(=O)[nH]c4ccc(F)cc34)CC2)c(C)c1 | 20.6% | – | – | 11.7% | 0.98 | 0.84 | 6.24% |
| C=CC(=O)N(c1ccc(C(F)(F)F)cc1)C(C(=O)NCCc1cccc(F)c1)c1cncc(C)c1 (centres undefined) | 63% | 7.72 µM | – | 91.6% | 0.91 | 0.73 | 38.8% |
| NS(=O)(=O)c1ccc(N2CCC(c3ccco3)CC2)cc1 | 8.47% | – | 45.9% | 38.9% | 1 | 0.83 | 5.4% |
| Cc1ccc(S(=O)(=O)N2CCN(C(=O)c3cc(=O)[nH]c4cc(F)ccc34)CC2)c(C)c1 | 48.1% | – | – | 11.4% | 1 | 0.92 | 21.8% |
| CS(=O)(=O)c1oc(-c2ccc(F)cc2)nc1S(=O)(=O)c1ccc(Cl)cc1 | 11% | – | – | 0% | 0.78 | 0.45 | 10.8% |
| O=C(CCl)N1CCC(c2nc(-c3cccnc3)nc3ccccc23)CC1 | 71.5% | 14.9 µM | – | 100% | 0.92 | 0.8 | 56.8% |
| Cc1ccncc1NC(=O)Cc1cccc(I)c1 | 39.7% | 69.1 µM | – | 64.3% | 1 | 1 | 17.4% |
| Cc1ccncc1NC(=O)c1cccc(NC(=O)Nc2cccnc2)c1 | -23.3% | – | 2.38% | 1.27% | 1 | 1 | – |
| Cc1cccc(NC(=O)C(C#N)C(=O)C2CC2)c1 (centres undefined) | 5.88% | – | 0.422% | 0.517% | 0.99 | 0.99 | – |
| Cc1ccnc2[nH]c(CC3CCN(C(=O)CCl)CC3)nc12 | 18.1% | 29.7 µM | – | 100% | 1 | 1 | 5.18% |
| C=CC(=O)N(c1ccc(C(C)(C)C)cc1)C(C(=O)NCCSC)c1cccnc1 (centres undefined) | 68.9% | 65.4 µM | 56% | 63.9% | 1 | 0.99 | 38.5% |
| C=CC(=O)N(c1ccc(C(F)(F)F)cc1)C(C(=O)Nc1c(C)cccc1CC)c1cccnc1 (centres undefined) | 38.6% | – | 23.9% | – | 0.89 | 0.79 | 22.3% |
| C=CC(=O)N(C1CCCC(C(C)C)CC1)C(C(=O)NC(C)(C)C)c1cccnc1 (centres undefined) | 8.24% | – | 0% | – | 0.99 | 0.95 | -1.08% |

| SMILES | inhibition ([1]; 50.0 µM) | IC50 [2] | inhibition ([2]; 20.0 µM) | inhibition ([2]; 50.0 µM) | relative solubility at 20 uM | relative solubility at 100 uM | inhibition ([1]; 20.0 µM) |
| --- | --- | --- | --- | --- | --- | --- | --- |
| Cc1cccc(CC(=O)Nc2cccnc2C#N)c1 | -5.94% | – | 0% | – | 1 | 1 | 8.4% |
| CS(=O)(=O)Nc1cccc(C(=O)OCC(=O)Nc2cccc(N3CCCC3=O)c2)c1 | 3.7% | – | – | 0% | 0.98 | 0.99 | 5.16% |
| C=CC(=O)N(c1ccc(C(C)(C)C)cc1)C(C(=O)NC1CC1)c1cccnc1 (centres undefined) | 33% | – | 8.67% | 33.3% | 1.01 | 1 | 25.4% |
| CC(NC(=O)CCl)c1cc(Cl)cc(-c2ccc(S(N)(=O)=O)cc2)c1 (centres undefined) | 94.6% | 0.526 µM | – | 79% | 0.99 | 0.99 | 98.4% |
| Cc1cccc(CS(=O)(=O)N2CCC(C(N)=O)CC2)c1 | 0.138% | – | – | 0% | 1.01 | 1.01 | -20.4% |
| Cc1ccccc1C(C(=O)NCC(O)Cn1ccnn1)c1ccccc1 (centres undefined) | 4.24% | – | 0% | – | 1 | 1.01 | 0.424% |
| CN(C)c1ccc(N(Cc2ccsc2)C(=O)Cn2nnc3ccccc32)cc1 | 90.5% | 5.37 µM | – | 90.3% | 0.92 | 0.48 | 84.4% |
| CCN1CCN(Cc2ccccc2CNC2=NC[C@@H](C3CCCC3)N2)CC1 (stereo in doubt) | -20.8% | – | – | -30.8% | 1 | 1 | -1.16% |
| C=CC(=O)N1CCCN(Cc2ccccc2)CC1 | 9.99% | – | 0% | – | 1 | 1 | 0.947% |
| Cc1cccc(NC(=O)C(C#N)C(=O)CC(C)C)c1 (centres undefined) | -0.258% | – | 0% | 0% | 1 | 1 | – |
| CCN(C)CC1CCN(c2ccc(S(N)(=O)=O)cc2)CC1 | 6.02% | – | 0% | 0% | 1 | 0.98 | 3.39% |
| C=CC(=O)N(c1ccc(S(F)(F)(F)(F)F)cc1)C(C(=O)Nc1c(C)cccc1CC)c1cccnc1 (centres undefined) | 7.07% | – | 4.69% | – | 0.85 | 0.73 | 3.13% |
| O=C(CCNC(=O)c1c[nH]c2ccccc12)Nc1ccc(-n2cnc3ccccc32)cc1 | 8.08% | – | – | 43.9% | 0.82 | 0.54 | -3.48% |
| COc1ccccc1OCCN(C)C(=O)c1cc(=O)[nH]c2cc(F)ccc12 | 7.57% | – | – | 0% | 1.01 | 1 | -3.47% |
| COC(=O)c1sc(NS(=O)(=O)c2ccc(CF)cc2)nc1C(C)(C)C | -7.77% | – | 0% | 0% | 1 | 0.99 | – |
| COc1ccccc1OC1CCCN(C(=O)c2cc(=O)[nH]c3ccc(Cl)cc23)C1 (centres undefined) | 5.27% | – | – | 0% | 0.99 | 0.93 | -0.617% |
| Cc1ccc(Oc2cccc(NC(=O)NCc3cnnn3C)c2)c(C)c1 | -12.8% | – | 0% | – | 0.96 | 0.75 | -10.7% |
| Nc1nnnn1-c1cccc(C(=O)Nc2c(-c3cccnc3)nc3ccccn23)c1 | 2.69% | – | 11% | 18.3% | 0.98 | 0.79 | -2.5% |
